pIC50: −log10 of the molar value. Non-standard residues stand in square brackets, D forms with d. Residues, ends and D or L forms follow the SMILES beside them. d(aIle) = CC[C@H](C)[C@@H](N)C(=O)O; NMeF = CN[C@@H](Cc1ccccc1)C(=O)O; dNMeF = CN[C@H](Cc1ccccc1)C(=O)O; NMeA = CN[C@@H](C)C(=O)O
Columns and labels:
3T3-L1 [1] = assay: Cytotoxicity against mouse 3T3L1 cells; format: cell-based
3T3-L1 [2] = assay: Cytotoxicity against mouse 3T3L1 cells at 62 uM; format: cell-based; conditions: 3t3-l1, 62 µM
3T3-L1 [3] = assay: Selectivity index, ratio of IC50 for mouse 3T3L1 cells to IC50 for fat-accumulation in mouse 3T3L1 cells; format: functional
3T3-L1 [4] = assay: Inhibition of fat-accumulation in mouse 3T3L1 cells; format: functional, cell-based

SMILES | pIC50 (3T3-L1 [1]) | Activity (3T3-L1 [2]) [%] | Ratio IC50 (3T3-L1 [3]) | pIC50 (3T3-L1 [4])
CC[C@H](C)[C@H]1NC(=O)[C@@H](Cc2ccoc2)N(C)C(=O)[C@H](C)N(C)C(=O)[C@H](CC(C)C)NC(=O)[C@H](Cc2ccoc2)N(C)C(=O)[C@H](C(C)C)NC(=O)[C@@H](C(C)C)NC1=O [RHIZONIN A] | 4.21 | 70 | 1 | 4.26
CC[C@H](C)[C@H]1NC(=O)[C@@H](Cc2ccccc2)N(C)C(=O)[C@H](C)N(C)C(=O)[C@H](CC(C)C)NC(=O)[C@H](Cc2ccccc2)N(C)C(=O)[C@H](C(C)C)NC(=O)[C@@H](C(C)C)NC1=O (cyclo(L[NMeA][dNMeF][d(aIle)][dV]V[NMeF])) | < 3.62 |  | >12.3 | 4.38

— ChEMBL document CHEMBL1143273, “Structure-based hybridization of the bioactive natural products rhizonin A and ternatin leading to a selective fat-accumulation inhibitor against 3T3-L1 adipocytes” (Bioorg Med Chem Lett, 2009)
